According to patent US10845369B2, “Sampling devices and methods of use” (3M INNOVATIVE PROPERTIES COMPANY, priority 2008, dated 2020):

Experiments:
luciferase enzyme = experiment: ATP detection activity test in CLEAN-TRACE devices (compatibility with luciferase enzyme); assay type: biochemical
Source text: The swabs were removed from the CLEAN-TRACE devices and replaced with dry, sterile Dacron swabs. One-third of the replacement swabs were dipped in solution I (see Table 1) for 20 seconds, tapped on the edge of a sterilin container 5 times (to remove excess swabbing solution), and the CLEAN-TRACE tube was reassembled with the moistened swab. One-third of the remaining replacement swabs were similarly moistened with solution II (Table 1) containing 2% (w/v) 1,2-propanediol and reassembled in the tubes. The remaining one-third were similarly moistened with solution II (Table 1) containing 5% (w/v) 1,2-propanediol and reassembled in the tubes. The reassembled devices were sealed in pouches containing 10 devices per pouch and stored at 4 degrees Celsius for 24 hours.
An ATP stock solution was prepared by reconstituting freeze-dried ATP with 500 microliters of autoclaved R.O. water to a working strength of […]. A 10-microliter aliquot of the ATP working solution was pipetted onto the middle of the bud of the test devices prepared for this Example (see above).
Individual devices were activated by plunging the handle of the swab into the test devices, thereby breaking the barrier and exposing the swab bud to the reagent solution containing luciferin. The tubes were then shaken for 20 seconds at speed 7 on the wrist action shaker (Stuart Scientific, Staffordshire, England) and the device was read device in a UNI-LITE luminometer (3M Healthcare, Bridgend, U.K.). Twenty replicate swabs were tested at each time point for each swab solution. Background readings (negative controls) were run at each time point by activating devices, containing one of the Solutions (I, IIa, or IIb), which was not spiked with the ATP solution. Ten devices were used for each negative control condition at each time point.
(§1) Swabs were prepared as described in Example 1. The swabs were tested for moisture retention as described in Example 1, for compatibility with luciferase enzyme as described in Example 3, and for perdurable detectable residue as described in Example 4. In these experiments, the swab effectiveness parameter was not recorded. All concentrations are listed as percent weight/volume. Solution I-moistened swabs were used as controls for all comparisons. Inhibition of luciferase activity was scored as significant when the measurement from the test swab was <90% of the activity observed with the control swabs. The inhibition was scored as very significant when the measurement from the test swab was <50% of the activity observed with the control swabs.

[1] = Moisture retention by premoistened swab devices during extended storage; assay type: physicochemical
Source text: Rapid Cleanliness Test swab sampling devices, sold under the trade name CLEAN-TRACE, were obtained from 3M Health Care (Bridgend, UK). Sterile Dacron swabs were obtained from Puritan Medical Products Company (Guilford, Me.). Foil pouches (160 mm (w)×270 mm (1) heat-sealable PET/foil/LDPE laminate pouches) were obtained from Westfield Medical Ltd. (Bath, UK). The analytical balance (model GR-300) was obtained from A&D Mercury Pty., (Thebarton, South Australia)
The swabs were removed from the CLEAN-TRACE devices and replaced with dry, sterile Dacron swabs. Half of the replacement swabs were dipped in solution I (see Table 1) for 20 seconds, tapped on the edge of a sterilin container 5 times (to remove excess swabbing solution), and the swabs were weighed before each CLEAN-TRACE tube was reassembled with a moistened swab. The remaining replacement swabs were similarly moistened with solution II (Table 1), weighed, and reassembled in the tubes.
The initial weight (T0) of each moistened swab was recorded. The reassembled tubes were placed into individual plastic pouches, which were heat-sealed. Care was taken to minimize the amount of air sealed in each pouch. The pouches were divided into two groups. One group was placed into a refrigerator which was held at a temperature of 4±3 degrees Celsius. The other group was placed into a chamber which was held at 25±1 degree Celsius. Sets of ten replicate tubes were removed from each chamber at each specified time point, the tubes were removed from the pouch and weighed, and the weights were recorded.
as §1

[2] = 5% w/v, vs Solution I control swabs
[3] = 5% w/v in Solution II, vs Solution I control
[4] = 1% w/v in Solution II, vs Solution I control

In the case of OCC(O)CO [Glycerol], the “Compatibility with luciferase enzyme” value (luciferase enzyme; up to 5% (1, 5% tested)) is reported as “No inhibition up to 5%”, the Moisture retention ([1]; 1, 5% tested) is reported as “Comparable to sorbitol and propylene glycol” and the Moisture retention ([1]; 10, 20, 50% tested) is reported as “Comparable to sorbitol and propylene glycol”.

With CC(=O)NCCO [Incromectant (N-Acetylethanolamine), N-Acetylethanolamine] the “Compatibility with luciferase enzyme” value (luciferase enzyme; [2]) was “Some inhibition at 5%” and the Moisture retention [1, 3] was 5% solution was comparable to PG.

For CC(O)CO (centres unmarked) [Propylene glycol (1,2-propanediol), 1,2-propanediol], the “Compatibility with luciferase enzyme” value (luciferase enzyme; 1, 2, 3, 4% tested) was “No inhibition”, the “Compatibility with luciferase enzyme” value (luciferase enzyme; 5, 6, 8% tested) was “No inhibition” and the Moisture retention [1, 4] was “No significant improvement”. For the same compound, the Moisture retention ([1]; ≥5% (5, 6, 8% tested)) was “Significant improvement ≥5%” and the Moisture retention ([1]; ≥5% (10. 20, 25, 50% tested)) was “Significant improvement ≥5%”.

In the case of CC(O)C(=O)[O-].[Na+] (centres unmarked) [Sodium lactate], the “Compatibility with luciferase enzyme” value (luciferase enzyme; [2]) is reported as “Significant inhibition” and the Moisture retention ([1]; 5 or 10% soln.) is reported as “No significant improvement with 5 or 10%”.

For OC[C@@H](O)[C@@H](O)[C@H](O)[C@@H](O)CO [Sorbitol], the “Compatibility with luciferase enzyme” value (luciferase enzyme; 1% w/v, vs Solution I control swabs) was “No inhibition”, the “Compatibility with luciferase enzyme” value (luciferase enzyme; [2]) was “No inhibition” and the Moisture retention [1, 4] was “No significant improvement with 1%”. For the same compound, the Moisture retention [1, 3] was “Slight improvement with 5%” and the Moisture retention ([1]; ≥10% (10, 20, 30, 40, 50, 100% tested)) was “Significant improvement with ≥10%”.
